Measured values published in patent US9351986B2, “Calicheamicin derivative-carrier conjugates” (priority 2002, dated 2016).
Positions count from the first letter of the chain named. Read-outs that look alike come from different tables or passages of the source.

How the values were obtained:
RL = test: In vitro growth inhibition of RL B-cell lymphoma line; assay type: cell-based; settings: for IC50: read-out: IC50 of calicheamicin
Source text: (§1) The effect of CMC-544 made by using CMA-676 and CMC-544 processes on the in vitro growth of CD22^+ B-Cell lymphoma cell lines, RL, Daudi, Raji and Ramos, were compared. An isotype-matched calicheamicin conjugate targeted at human CD33 (CMA-676) was used to reflect antigen-non-specific effects of the conjugate. […] CD22-mediated delivery of calicheamicin to the CD22^+ cells was at least 10 times more efficient in killing the target cells than the unconjugated drug itself. […] It is apparent from Table 4 that conjugate made by the CMC-544 conjugation process can generate equivalent cytotoxic effect at lower antibody concentrations than conjugate made by the CMA-676 conjugation process.

Raji = test: In vitro growth inhibition of Raji B-cell lymphoma line; assay type: cell-based; settings: for IC50: read-out: IC50 of calicheamicin
Source text: as §1

RL NHL xenografts = RL NHL xenografts staged to 300-400 mg in nude mice; assay type: in vivo; settings: 160 μg/kg intraperitoneally
Method: Similar studies were carried out using the RL lymphoma model. […] CMC-544 in a dose-dependent manner caused tumors to regress over a 3-week time frame. The minimally effective dose of CMC-544 in the RL lymphoma model was established from statistical analyses of these studies to be 20 μg/kg based on calicheamicin content. There were no deaths in any of these three studies.
The observed anti-tumor efficacy was dose-dependent as expected and there was no difference in the efficacies of either of the two CMC-544 preparations. […] However, it should be emphasized that for each dose of conjugated calicheamicin, the quantity of antibody protein administered in the form of a conjugate was four times higher for CMC-544 made by the CMA-676 process versus that made by the CMC-544 process. Since the calicheamicin content of the targeted conjugate is primarily responsible for causing the anti-tumor effect, it is possible to deliver the required quantity of calicheamicin via the conjugate made by the new procedure using much smaller quantities of the targeting antibody. The increased loading of the conjugate made by the CMC-544 process is, in effect, due to the lack of significant amounts of the low conjugated fraction (LCF).

Ramos = test: In vitro growth inhibition of Ramos B-cell lymphoma line; assay type: cell-based, human; settings: for IC50: read-out: IC50 of calicheamicin
Source text: as §1

Daudi = test: In vitro growth inhibition of Daudi B-cell lymphoma line; assay type: cell-based; settings: Daudi #1; for IC50: read-out: IC50 of calicheamicin
Source text: as §1

large RAMOS lymphoma = test: Large established RAMOS lymphoma xenografts; assay type: in vivo, nude mice; settings: 160 μg/kg ip, days 1, 5 and 9
Method: The ability of CMC-544 made by the new procedure to inhibit growth of large established B-cell lymphoma xenografts using both the RAMOS and RL lymphoma models was also investigated. The tumors were allowed to grow and staged to 1.5 or 2 g of tumor mass after which CMC-544 or an isotype-matched negative control conjugate (CMA-676) were administered intraperitoneally at the dose of 160 μg/kg of conjugated calicheamicin keeping the original schedule of dosing on days 1, 5 and 9.
The same schedule of dosing was shown earlier to cause long lasting regression of small staged tumors (see Table 6).

Ramos cells [1] = test: Disseminated RAMOS B lymphoma in SCID mice, established model; assay type: in vivo
Method: (§2) Male SCID mice (CB17 SCID), 20-25 g, were injected with […] through the tail vein (0.2 ml). […] For the day 3 treatment schedule, mice were dosed on days 3, 7, and 11. For the day 9 treatment schedule, mice were dosed on days 9, 13 and 17. […] Mice were monitored daily for the presence of hind limb paralysis at which time they were killed. Seven to 10 mice per treatment group were used. The group average survival time (±SD), median, minimum, and maximum survival times were all calculated. The difference in survival distribution between groups was determined by using a nonparametric Log-rank test with significance reported at the 0.05 level. The survival curves were constructed using the Kaplan-Meier method.
The initial study examined the effect of two different dosing schedules on survival times of the SCID mice with the disseminated lymphoma. The first study looked at initiating drug dosing 3 days after the tumor cells were injected intravenously (developing model), while the second study delayed drug dosing until 9 days post tumor cell injection (established model). […]

Ramos cells [2] = test: Disseminated RAMOS B lymphoma in SCID mice, developing model; assay type: in vivo
Method: as §2
The initial study examined the effect of two different dosing schedules on survival times of the SCID mice with the disseminated lymphoma. The first study looked at initiating drug dosing 3 days after the tumor cells were injected intravenously (developing model), while the second study delayed drug dosing until 9 days post tumor cell injection (established model).

CD22mFc = test: BIACORE biosensor binding analysis of CMC-544 and G5/44; settings: Table 3
Method: Biosensor analyses were carried out using a BIACORE™ 2000 (BIAcore AB, Uppsala, Sweden). CD22mFc was covalently immobilized on the N-hydroxysuccinimide-activated carboxymethyl dextran-coated biosensor chip (CM5) using a standard amine-coupling chemistry at a protein density of approximately 2000 resonance units. Samples of CMC-544 or G5/44 were diluted in the HBS buffer (10 mM HEPES, pH 7.4, containing 150 mM NaCl, 3 mM EDTA and 0.005% polysorbate 20 (v/v)) and injected in the concentration range of 1 to 100 nM over the CD22mFc-coated biosensor chip surface at a flow rate of 30 μl/min for 3 min to allow binding. After the binding phase, dissociation of the bound antibody was monitored by washing the chip with the HBS buffer over a 15 minute period. The antigenic surface was regenerated by washing the Biosensor chip with 15 μl of the regeneration buffer (10 mM NaOH and 200 mM NaCl) for 30 seconds, followed by a stabilization time of 2 minutes before the next cycle. Kinetic constants were calculated by nonlinear least square regression analysis using a 1:1 Langmuir binding curve fitting model and BIAevaluation program (version 3.0, BIAcore). The antigen binding of CMC-544 was evaluated by surface plasmon resonance analysis using CD22mFc covalently immobilized on a biosensor chip.

RAMOS B-cell lymphoma = RAMOS B-cell lymphoma xenograft growth; assay type: in vivo; settings: 10 mg/kg intraperitoneal, subcutaneous xenografts
Source text: In Vivo Cytotoxicity. CMC-544 made by the CMC-544 process was further evaluated in B-cell lymphoma xenografts. In these studies, two B-cell lymphoma tumors, RAMOS and RL, were used. RL lymphoma is a non-Burkitt's NHL-derived cell line whereas RAMOS was originally derived from a Burkitt's lymphoma.

[3] = tested on: CD22− CD33+ HL-60 leukemia cells; test: Flow cytometry binding to HL-60 leukemia cells; settings: data not shown
Source text: Purified human polyclonal IgG1 and IgG4 were also used as negative controls.

CD22-mFc = test: BIACORE affinity of chimeric 5/44 and its variants; assay type: binding; settings: CDR-H2 mutants of chimeric 5/44
Method: The activities of the chimeric genes were evaluated following transient transfection into CHO cells and determination of affinity constants by BIACORE™ analysis.
The affinities of chimeric 5/44 or its variants, which have had their glycosylation site or their reactive lysine removed, were investigated using BIA technology for binding to CD22-mFc constructs. All binding measurements were performed in the BIACORE™ 2000 instrument (Pharmacia Biosensor AB, Uppsala, Sweden). The assay was performed by capture of CD22mFc via the immobilized anti-mouse Fc. The antibody was in the soluble phase. Samples, standard, and controls (50 μl) were injected over immobilized anti-mouse Fc followed by antibody in the soluble phase. After each cycle, the surface was regenerated with 50 μl of 40 mM HCl at 30 μl/min. The kinetic analysis was performed using the BIAevaluation 3.1 software (Pharmacia).

cell surface CD22 = target: T1, cell surface CD22 (Homo sapiens, UniProt P20273); test: Competition assay against mouse 5/44 antibody for binding to Ramos cells; settings: grafted variants expressed in CHO cells
T1 construct: host or cells: Ramos (Burkitt's lymphoma)
Source text: The vectors encoding grafted variants were co-transfected into CHO cells in a variety of combinations, together with the original chimeric antibody chains. Binding activity was compared in a competition assay, competing the binding of the original mouse 5/44 antibody for binding to Ramos cells (obtained from ATCC, a Burkitt's lymphoma lymphoblast human cell line expressing surface CD22). This assay was considered the best way to compare the grafts in their ability to bind to cell surface CD22.

[4] = Table 8, conjugates 160 μg/kg, rituximab 20 mg/kg ip Q4Dx3 from day 9
[5] = Table 8, conjugates 160 μg/kg, rituximab 20 mg/kg ip Q4Dx3 from day 3

## CCN(C(C)=O)[C@H]1CO[C@@H](O[C@H]2[C@H](O[C@H]3C#C/C=C\C#C[C@]4(O)CC(=O)C(NC(=O)OC)=C3/C4=C\CSSC(C)(C)CC(=O)NN)O[C@H](C)[C@@H](NO[C@H]3C[C@H](O)[C@H](SC(=O)c4c(C)c(I)c(O[C@@H]5O[C@@H](C)[C@H](O)[C@@H](OC)[C@H]5O)c(OC)c4OC)[C@@H](C)O3)[C@@H]2O)C[C@@H]1OC [N-ACETYL GAMMA CALICHEAMICIN DMH, N-Ac gamma calicheamicin DMH, reference compound]
RL; RL #1
  IC50: 0.226 nM
RL; RL #2
  IC50: 0.27 nM
Raji; Raji #1
  IC50: 0.46 nM
Raji; Raji #2
  IC50: 0.49 nM
RL NHL xenografts
  anti-tumor activity of unconjugated drug: inactive
Ramos; Ramos #1
  IC50: 0.7 nM
Ramos; Ramos #2
  IC50: 1 nM
Daudi
  IC50: 0.26 nM

## CMA-676: isotype-matched control conjugate of hP67.6 (IgG4, anti-CD33) with AcBut linked calicheamicin [reference compound]
RL; RL #1
  IC50 of antibody: 17.14 µg/mL
  IC50: 0.6 nM
RL; RL #2
  IC50 of antibody: 11.43 µg/mL
  IC50: 0.4 nM
Raji; Raji #1
  IC50 of antibody: 80.00 µg/mL
  IC50: 2.8 nM
Raji; Raji #2
  IC50 of antibody: 117.14 µg/mL
  IC50: 4.1 nM
Large RAMOS lymphoma
  effect on tumor growth: no effect on the tumor growth
  mice sacrificed before day 15 because of tumor burden: Four out of five
Ramos cells [1]; 160 μg/kg ip Q4Dx3
  effect on survival times: no significant effect on survival times
Ramos cells [1]; [4]
  Average Survival Time: 33.7 days
  Maximum Survival Time: 42.0 days
  Median Survival Time: 31.0 days
  Minimum Survival Time: 30.0 days
Ramos cells [2]; 160 μg/kg ip Q4Dx3, p>0.05
  effect on survival time: did not increase survival time significantly
Ramos cells [2]; [5]
  Average Survival Time: 32.9 days
  Maximum Survival Time: 36.0 days
  Median Survival Time: 34.0 days
  Minimum Survival Time: 28.0 days
Daudi
  IC50 of antibody: 53.89 µg/mL
  IC50: 1.89 nM

## CMC-544 (21 μg/mg) (CMA-676 procedure)
CD22mFc
  KA: 8.1e+09 M⁻¹
  Ka: 490000 M⁻¹ s⁻¹
  Kd: 6.1e-05 s⁻¹

## CMC-544 (87 μg/mg) (CMA-544 procedure)
CD22mFc
  KA: 6.6e+09 M⁻¹
  Ka: 460000 M⁻¹ s⁻¹
  Kd: 6.9e-05 s⁻¹

## CMC-544 PROCESS CMC-544 LOADING 65 μg/mg: CMC-544 made by the CMC-544 conjugation process
RL; RL #1
  IC50: 0.006 nM
RL; RL #2
  IC50: 0.012 nM
Raji; Raji #1
  IC50: 0.5 nM
Raji; Raji #2
  IC50: 0.56 nM
Ramos; Ramos #2
  IC50: 0.26 nM
Daudi
  IC50: 0.021 nM

## CMC-676 PROCESS CMC-544 LOADING 35 μg/mg: CMC-544 made by the CMA-676 conjugation process
RL; RL #1
  IC50: 0.03 nM
RL; RL #2
  IC50: 0.04 nM
Raji; Raji #2
  IC50: 0.52 nM
Daudi
  IC50: 0.08 nM

## G5/44: CDR-grafted humanized antibody directed against cell surface antigen CD22, IgG4 isotype
RL; RL #1
  IC50 of antibody: >100 µg/mL
RL; RL #2
  IC50 of antibody: >100 µg/mL
Raji; Raji #1
  IC50 of antibody: >100 µg/mL
Raji; Raji #2
  IC50 of antibody: >100 µg/mL
CD22mFc
  KA: 7.9e+09 M⁻¹
  Ka: 220000 M⁻¹ s⁻¹
  Kd: 2.8e-05 s⁻¹
Ramos; Ramos #1
  IC50 of antibody: >100 µg/mL
Ramos; Ramos #2
  IC50 of antibody: >100 µg/mL
RAMOS B-cell lymphoma
  effect of unconjugated antibody on tumor growth: no effect on tumor growth
[3]
  binding to HL-60 leukemia cells: neither CMC-544 nor G5/44 demonstrated any binding
Daudi
  IC50 of antibody: >100 µg/mL

## K60R: chimeric 5/44 with CDR-H2 mutation K60R removing the reactive lysine
CD22-mFc
  effect of the mutation on affinity: neutral effect on affinity

## N55Q: chimeric 5/44 with CDR-H2 mutation N55Q removing the glycosylation site
CD22-mFc
  effect of the mutation on affinity: no effect on affinity

B1: gH6: CDR-grafted 5/44 heavy chain graft gH6 (SEQ ID NO: 26) (antibody, V domains shown)
VH: EVQLVQSGAEVKKPGASVKVSCKASGYRFTNYWIHWVRQAPGQGLEWIGGINPGNNYATYRRKFQGRATLTADTSTSTVYMELSSLRSEDTAVYYCTREGYGNYGAWFAYWGQGTLVTVSS
modifications: gH6
Cell surface CD22
  binding activity in competition with mouse 5/44: did not appear to have affected binding

B2: gH7: CDR-grafted 5/44 heavy chain graft gH7 (SEQ ID NO: 27) (antibody, V domains shown)
VH: B1 VH with A68V, L70M
modifications: gH7
Cell surface CD22
  binding activity in competition with mouse 5/44: did not appear to have affected binding
